Test results from the supplement of paper PMC11451515.

Test system: P12-Ichikawa
Assay: cell viability relative to DMSO control; higher = less cytotoxic
Conditions: 48 h
Procedure, shortened: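 Viability, reported as a per-plate percentage of DMSO wells with cell-free wells as background, came from CellTiter-Glo One luminescence. Reading took place after 48 h at 37°C. Before that, NOMO1 or SEM (500 cells/well) or P12-Ichikawa (1000 cells/well) leukemia cells, adapted for at least four passages in each medium, were seeded in 1536-well plates (5 μl) and pin-dosed with library compounds in DMSO, 47 μM to 0.79 nM over 11 threefold points.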

[1] = HPLM + 10% dialyzed FBS, 0.000781 µM
[2] = HPLM + 10% dialyzed FBS, 0.00234 µM
[3] = HPLM + 10% dialyzed FBS, 0.00702 µM
[4] = HPLM + 10% dialyzed FBS, 0.0211 µM
[5] = HPLM + 10% dialyzed FBS, 0.0632 µM
[6] = HPLM + 10% dialyzed FBS, 0.19 µM
[7] = HPLM + 10% dialyzed FBS, 0.569 µM
[8] = HPLM + 10% dialyzed FBS, 1.71 µM
[9] = HPLM + 10% dialyzed FBS, 5.12 µM
[10] = HPLM + 10% dialyzed FBS, 15.4 µM
[11] = HPLM + 10% dialyzed FBS, 46.1 µM
[12] = RPMI 5 mM glucose + 10% FBS, 0.000781 µM
[13] = RPMI 5 mM glucose + 10% FBS, 0.00234 µM
[14] = RPMI 5 mM glucose + 10% FBS, 0.00702 µM
[15] = RPMI 5 mM glucose + 10% FBS, 0.0211 µM
[16] = RPMI 5 mM glucose + 10% FBS, 0.0632 µM
[17] = RPMI 5 mM glucose + 10% FBS, 0.19 µM
[18] = RPMI 5 mM glucose + 10% FBS, 0.569 µM
[19] = RPMI 5 mM glucose + 10% FBS, 1.71 µM
[20] = RPMI 5 mM glucose + 10% FBS, 5.12 µM
[21] = RPMI 5 mM glucose + 10% FBS, 15.4 µM
[22] = RPMI 5 mM glucose + 10% FBS, 46.1 µM
[23] = RPMI 5 mM glucose + 10% dialyzed FBS, 0.000781 µM
[24] = RPMI 5 mM glucose + 10% dialyzed FBS, 0.00234 µM
[25] = RPMI 5 mM glucose + 10% dialyzed FBS, 0.00702 µM
[26] = RPMI 5 mM glucose + 10% dialyzed FBS, 0.0211 µM
[27] = RPMI 5 mM glucose + 10% dialyzed FBS, 0.0632 µM
[28] = RPMI 5 mM glucose + 10% dialyzed FBS, 0.19 µM
[29] = RPMI 5 mM glucose + 10% dialyzed FBS, 0.569 µM
[30] = RPMI 5 mM glucose + 10% dialyzed FBS, 1.71 µM
[31] = RPMI 5 mM glucose + 10% dialyzed FBS, 5.12 µM
[32] = RPMI 5 mM glucose + 10% dialyzed FBS, 15.4 µM
[33] = RPMI 5 mM glucose + 10% dialyzed FBS, 46.1 µM

SMILES	cell viability [1] [%]	cell viability [2] [%]	cell viability [3] [%]	cell viability [4] [%]	cell viability [5] [%]	cell viability [6] [%]	cell viability [7] [%]	cell viability [8] [%]	cell viability [9] [%]	cell viability [10] [%]	cell viability [11] [%]	cell viability [12] [%]	cell viability [13] [%]	cell viability [14] [%]	cell viability [15] [%]	cell viability [16] [%]	cell viability [17] [%]	cell viability [18] [%]	cell viability [19] [%]	cell viability [20] [%]	cell viability [21] [%]	cell viability [22] [%]	cell viability [23] [%]	cell viability [24] [%]	cell viability [25] [%]	cell viability [26] [%]	cell viability [27] [%]	cell viability [28] [%]	cell viability [29] [%]	cell viability [30] [%]	cell viability [31] [%]	cell viability [32] [%]	cell viability [33] [%]
C=C1C(=O)[C@@]23C(CC[C@@H]1[C@H]2O)[C@@]12CO[C@]3(O)[C@@H](O)[C@@H]1C(C)(C)CC[C@@H]2O (stereo partly specified)	108	119	120	123	122	115	113	112	89.1	44.7	3.48	116	116	119	119	132	118	113	95.5	85.7	16.6	3.61	116	117	126	123	125	124	111	105	75.6	21.9	3.49
COc1ccc(OC)c(-c2nnc3ccc(-c4ccc(OC)c(O[C@@H]5CCOC5)c4)nn23)c1	119	118	118	126	136	117	126	132	128	124	105	–	–	–	–	–	–	–	–	–	–	–	–	–	–	–	–	–	–	–	–	–	–
C=C1C(=O)OC(CCCCCCCC)C1C(=O)O (stereo unspecified)	105	116	113	122	123	122	124	121	129	120	115	124	120	123	132	129	122	137	132	128	129	128	107	116	122	129	124	123	133	131	133	128	113
N[C@H]2CN(CC12CC1)c3c(F)cc4c(c3Cl)[N@@](C=C(C4=O)C(=O)O)C5C[C@H]5F (stereo partly specified)	97.7	91.2	101	87.6	96.6	89.8	87.3	96.1	88.8	85.4	89.9	79.9	91	88.8	90.4	85.8	94.5	83	82.9	95	83.5	86.1	80.7	84.8	86	88.3	82.5	85.2	80.9	78	84.2	77.7	81.3
O=C(CCCCCCC(=O)Nc1ccc([C@H]2O[C@@H](CSc3nc(-c4ccccc4)c(-c4ccccc4)o3)C[C@@H](c3ccc(CO)cc3)O2)cc1)NO	–	–	–	–	–	–	–	–	–	–	–	118	122	134	123	136	116	115	114	49.9	4.95	3.26	–	–	–	–	–	–	–	–	–	–	–
O=C(CCCCCCC(=O)Nc1cccnc1)NO	93	99.9	96.9	96.9	105	109	99.5	90.8	82.1	12.2	4.36	82.5	95.6	93.7	93.4	97.5	95.4	99.6	85.7	76.1	9.59	3.79	86.9	92.8	90.7	91.9	94.7	95.1	94.3	85.2	73.9	10	3.83
O=C(CS(=O)Cc1ccco1)NC/C=C\COc1cc(CN2CCCCC2)ccn1 (stereo unspecified)	90.8	98.6	100	98	101	102	107	104	107	112	100	87.7	88	93.3	99.8	104	98.7	–	96.4	109	94.4	109	78.9	87.4	87.2	97.4	101	94.4	95.9	92.3	93.2	105	99.3
O=C(Nc1c[nH]nc1-c1nc2cc(CN3CCOCC3)ccc2[nH]1)NC1CC1	93.4	101	101	97.6	53.8	12.7	23.9	38.5	51.6	36.5	19.3	97	103	101	99.8	59	16	38	47.3	45.1	38.6	14.1	99	98.6	91.5	102	65.2	24.8	45.8	58.5	60.2	46.5	14.2
C[N]1C=C(C2=CC=CC=C12)\C3=C(\C(=O)NC3=O)C4=C[N](C5CCN(CC5)CC6=NC=CC=C6)C7=C4C=CC=C7	110	116	115	119	118	123	120	118	118	120	117	118	126	119	115	118	123	127	124	116	116	125	–	–	–	–	–	–	–	–	–	–	–
Cc1ccc(C(=O)Nc2cccc(C(F)(F)F)c2)cc1-c1ccc2nc(NCCN3CCOCC3)ncc2c1	110	111	112	111	116	109	107	92.6	85	64.2	42.6	105	106	119	115	113	111	113	109	62.2	50.3	31.7	110	107	107	105	116	107	103	92.5	73.7	49.3	30.5
CCCC(C)(COC(N)=O)COC(=O)NC(C)C (stereo unspecified)	115	117	114	130	127	123	121	119	129	135	119	–	–	–	–	–	–	–	–	–	–	–	–	–	–	–	–	–	–	–	–	–	–
CCC[S+](=O)([O-])Nc1ccc(F)c(C(=O)c2c[nH]c3ncc(Cl)cc23)c1F	110	116	109	119	112	110	99.8	108	103	65.7	44.2	115	115	121	116	114	115	123	113	113	85.6	54.7	118	118	119	118	120	115	111	110	99.8	72.3	44.2
COc1cc([C@@H](CC(=O)O)c2ccc(C)c(CN3C[C@@H](C)Oc4ccccc4[S+]3(=O)[O-])c2)cc2nnn(C)c12	108	115	114	110	109	110	115	109	96.6	12.6	10.5	115	114	118	106	126	113	121	111	101	84	67.4	114	122	115	125	114	112	116	116	104	94.7	70.7
Cc1nc2cc(C(=O)N3CCC4(CC3)CC(=O)c3c(cnn3C(C)C)C4)ccc2[nH]1	103	121	107	120	116	119	122	110	93.3	112	18	–	–	–	–	–	–	–	–	–	–	–	–	–	–	–	–	–	–	–	–	–	–
CCOC(=O)N1c2ccc(C(F)(F)F)cc2[C@@H](N(Cc2cc(C(F)(F)F)cc(C(F)(F)F)c2)C(=O)OC)C[C@H]1CC	127	120	116	119	119	114	121	110	116	110	106	131	123	122	132	133	116	127	121	124	103	111	115	128	117	118	120	127	121	114	123	112	104
Cc1cn([C@H]2C=C[C@@H](CO)O2)c(=O)[nH]c1=O	104	114	108	108	112	103	119	103	115	116	108	100	111	107	108	105	104	112	115	108	110	98	99.4	101	110	105	103	101	112	108	99.2	107	92.8
COC(=O)Nc1nc2cc(C(=O)c3ccc(F)cc3)ccc2[nH]1	106	106	100	106	101	104	78.2	42.1	23	60.6	40.8	97	99.2	101	99.1	95.2	92.7	81.8	47.2	26.6	74.2	50	95.5	94.6	92.9	96.4	103	91.1	82	49.3	33.9	73.9	76.7
